For experiment [1], the target named is T1, GST fusion human ERK2 protein (Homo sapiens, UniProt P28482).
T1 construct: purchased Carna Biosciences, Inc; host or cells: E. coli expression system
The experiment can be described thus: ERK2 enzyme assay (2). It is filed as biochemical. The following applies: ERK2 enzyme assay (2); read-out: ERK2 enzyme inhibitory activity (2). In short, it runs like this:
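GST-tagged human ERK2 expressed in E. coli (1.25 nmol/L) was preincubated with compound for 15 min at room temperature in pH 7.5 Hepes buffer with MgCl2, DTT and Brij35. Reaction with FL-Peptide 8 (final 4.25 μmol/L) and ATP (final 1 mmol/L) ran 120 min at 25 °C; EDTA stopped it, and phosphorylated peptide was quantified by mobility-shift separation to derive IC50.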

The target of another experiment is T2, human PI3Kα protein (Homo sapiens, UniProt P42336).
T2 construct: purchased Carna Biosciences, Inc; host or cells: baculovirus expression system
The experiment can be described thus: PI3Kα enzyme assay (ADP-Glo). It is filed as biochemical. The conditions noted are these: read-out: PI3Kα enzyme inhibitory activity. In short, it runs like this: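 Biotinylated human PI3Kα (baculovirus-expressed, 4.5 nmol/L) pre-incubated 15 min with compound in Tris-HCl pH 7.5, MgCl2, BSA; reaction 60 min at 25° C with 50 μmol/L PIP2 and 100 μmol/L ATP final. ADP quantified by ADP-Glo luminescence; IC50 calculated.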
(ADP-Glo turns the ADP formed in a reaction into a luminescent signal.)

T2 sequence (P42336 whole entry): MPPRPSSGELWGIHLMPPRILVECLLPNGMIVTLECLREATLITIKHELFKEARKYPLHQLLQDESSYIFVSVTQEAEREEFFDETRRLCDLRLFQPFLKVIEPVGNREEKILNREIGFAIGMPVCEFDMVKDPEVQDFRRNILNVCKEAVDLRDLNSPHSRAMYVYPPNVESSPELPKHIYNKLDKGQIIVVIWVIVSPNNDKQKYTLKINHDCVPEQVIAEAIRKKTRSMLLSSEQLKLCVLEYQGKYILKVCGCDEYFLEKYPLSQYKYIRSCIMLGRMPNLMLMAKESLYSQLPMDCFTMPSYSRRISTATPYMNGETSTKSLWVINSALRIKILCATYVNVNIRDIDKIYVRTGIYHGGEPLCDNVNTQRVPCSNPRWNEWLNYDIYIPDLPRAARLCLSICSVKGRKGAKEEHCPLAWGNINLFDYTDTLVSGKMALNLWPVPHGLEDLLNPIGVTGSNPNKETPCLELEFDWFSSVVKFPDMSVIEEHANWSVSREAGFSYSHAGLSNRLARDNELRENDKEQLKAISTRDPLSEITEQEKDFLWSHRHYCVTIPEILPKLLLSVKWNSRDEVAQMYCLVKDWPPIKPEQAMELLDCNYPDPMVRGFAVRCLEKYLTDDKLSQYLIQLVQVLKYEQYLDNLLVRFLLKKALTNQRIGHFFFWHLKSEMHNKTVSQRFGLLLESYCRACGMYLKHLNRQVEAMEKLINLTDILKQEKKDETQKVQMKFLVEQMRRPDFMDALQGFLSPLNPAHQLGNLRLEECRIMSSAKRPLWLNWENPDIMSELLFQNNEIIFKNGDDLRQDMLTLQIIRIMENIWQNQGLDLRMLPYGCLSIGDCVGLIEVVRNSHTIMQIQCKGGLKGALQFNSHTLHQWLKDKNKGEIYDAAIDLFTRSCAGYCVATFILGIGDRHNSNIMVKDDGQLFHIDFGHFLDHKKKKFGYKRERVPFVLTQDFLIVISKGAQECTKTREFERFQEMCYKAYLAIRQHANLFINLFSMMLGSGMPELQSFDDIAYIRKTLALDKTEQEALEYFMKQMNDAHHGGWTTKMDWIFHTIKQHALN
T2 sequence (P27986 whole entry partner): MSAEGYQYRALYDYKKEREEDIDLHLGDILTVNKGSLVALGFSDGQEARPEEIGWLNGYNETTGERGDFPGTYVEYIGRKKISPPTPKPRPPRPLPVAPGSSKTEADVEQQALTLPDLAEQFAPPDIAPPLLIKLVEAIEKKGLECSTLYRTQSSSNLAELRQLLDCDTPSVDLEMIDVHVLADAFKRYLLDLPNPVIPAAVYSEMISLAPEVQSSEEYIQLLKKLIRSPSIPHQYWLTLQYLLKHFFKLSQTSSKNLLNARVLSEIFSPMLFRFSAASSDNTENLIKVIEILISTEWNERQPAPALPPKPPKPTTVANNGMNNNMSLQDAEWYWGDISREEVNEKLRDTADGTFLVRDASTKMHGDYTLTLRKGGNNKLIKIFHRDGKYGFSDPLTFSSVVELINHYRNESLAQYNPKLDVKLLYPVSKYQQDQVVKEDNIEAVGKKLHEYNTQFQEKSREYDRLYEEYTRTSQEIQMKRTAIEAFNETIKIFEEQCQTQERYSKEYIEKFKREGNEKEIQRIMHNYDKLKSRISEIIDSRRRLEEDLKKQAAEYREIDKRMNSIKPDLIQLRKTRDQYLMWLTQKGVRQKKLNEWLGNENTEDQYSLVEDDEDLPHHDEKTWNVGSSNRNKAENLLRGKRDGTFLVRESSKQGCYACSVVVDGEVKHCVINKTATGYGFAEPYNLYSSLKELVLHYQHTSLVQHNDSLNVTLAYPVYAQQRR
T1 sequence (P28482 whole entry, the tested form may be a part): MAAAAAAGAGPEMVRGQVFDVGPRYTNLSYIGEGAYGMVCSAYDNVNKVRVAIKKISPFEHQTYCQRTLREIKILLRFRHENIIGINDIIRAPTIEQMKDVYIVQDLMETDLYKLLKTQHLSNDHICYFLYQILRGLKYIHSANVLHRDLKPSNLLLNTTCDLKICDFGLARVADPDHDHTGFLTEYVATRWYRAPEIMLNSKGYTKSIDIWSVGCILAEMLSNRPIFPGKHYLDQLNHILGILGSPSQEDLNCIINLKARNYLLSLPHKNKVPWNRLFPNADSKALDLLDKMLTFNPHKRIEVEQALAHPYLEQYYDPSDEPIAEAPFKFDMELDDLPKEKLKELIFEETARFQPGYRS

On to `CC(C)c1cnnc(Nc2ccc3ncc(-c4cn(C)nc4C4CN(C(=O)OC(C)(C)C)C4)cc3n2)c1` [Example 0779, tert-butyl 3-(4-(6-((5-isopropylpyridazin-3-yl)amino)-1,5-naphthyridin-3-yl)-1-methyl-1H-pyrazol-3-yl)azetidine-1-carboxylate], for which the IC50 (in experiment [1]; at human PI3Kα protein) was below 1000 nM in each case.
As to `CC(C)c1cnnc(Nc2ccc3ncc(-c4cn(C)nc4C4CNC4)cc3n2)c1` [Example 0780, 7-(3-(azetidin-3-yl)-1-methyl-1H-pyrazol-4-yl)-N-(5-isopropylpyridazin-3-yl)-1,5-naphthyridine-2-amine], the IC50 (in experiment [1]; at human PI3Kα protein) was below 1000 nM each time.
In the case of `Cn1cc(-c2cnc3ccc(Nc4cc(C(C)(C)O)cnn4)nc3c2)c(-c2ccncc2)n1` [Example 0782], the IC50 (in experiment [1]; at human PI3Kα protein) was below 1000 nM throughout.
`CC(C)(O)c1cnnc(Nc2ccc3ncc(-c4cnn(CC5CCOCC5)c4)cc3n2)c1` [Example 0783]: the IC50 (in experiment [1]; on human PI3Kα protein) was below 1000 nM in each case.
With `COCCn1cc(-c2nn(C)cc2-c2cnc3ccc(Nc4cc(C(C)C)cnn4)nc3c2)cn1` [Example 0784], the IC50 (in experiment [1]; at human PI3Kα protein) was below 1000 nM in each case.
For the compound `C=C(C)c1cnnc(Nc2ccc3ncc(-c4cn(C)nc4C)cc3n2)c1` [Example 0785], the IC50 (in experiment [1]; on human PI3Kα protein) was below 1000 nM throughout.
On to `COCC(C)c1cnnc(Nc2ccc3ncc(-c4cn(C)nc4C)cc3n2)c1` (stereo not shown) [Example 0786, 7-(1,3-dimethyl-1H-pyrazol-4-yl)-N-(5-(1-methoxypropan-2-yl)pyridazin-3-yl)-1,5-naphthyridine-2-amine], for which the IC50 (in experiment [1]; at human PI3Kα protein) was below 1000 nM throughout.
As to `C=C(C)c1cnnc(Nc2ccc3ncc(-c4cnn(C)c4)cc3n2)c1` [Example 0787, 7-(1-Methyl-1H-pyrazol-4-yl)-N-(5-(prop-1-en-2-yl)pyridazin-3-yl)-1,5-naphthyridine-2-amine], the IC50 (in experiment [1]; at human PI3Kα protein) was below 1000 nM throughout.
Consider `COCC(C)c1cnnc(Nc2ccc3ncc(-c4cnn(C)c4)cc3n2)c1` (stereo not shown) [Example 0788, N-(5-(1-methoxypropan-2-yl)pyridazin-3-yl)-7-(1-methyl-1H-pyrazol-4-yl)-1,5-naphthyridine-2-amine], for which the IC50 (in experiment [1]; on human PI3Kα protein) was below 1000 nM throughout.
As to `Cc1nn(C)cc1-c1cnc2ccc(Nc3cc(CC4CCCCC4)cnn3)nc2c1` [Example 0789], the IC50 (in experiment [1]; on human PI3Kα protein) was below 1000 nM in each case.
As to `Cc1nn(C)cc1-c1cnc2ccc(Nc3cc(CC(C)C)cnn3)nc2c1` [Example 0790], the IC50 (in experiment [1]; at human PI3Kα protein) was below 1000 nM in each case.
For `Cc1nn(C)cc1-c1cnc2ccc(Nc3cc(C4CCC4)cnn3)nc2c1` [Example 0791], the IC50 (in experiment [1]; on human PI3Kα protein) was below 1000 nM each time.
Turning to `COC(=O)c1ccc(Cn2cc(-c3cnc4ccc(Nc5cc(C(C)C)cnn5)nc4c3)cn2)cc1` [Example 0792], the IC50 (in experiment [1]; at human PI3Kα protein) was below 1000 nM in each case.
Consider `CC(C)c1cnnc(Nc2ccc3ncc(-c4cn(C)nc4-c4ccc(N(C)C)nc4)cc3n2)c1` [Example 0793], for which the IC50 in experiment [1] was 1000 to 10000 nM; on human PI3Kα protein it was below 1000 nM.
On the same counts, the results for `COC1(C)CN(CCCn2cc(-c3cnc4ccc(Nc5cc(C(C)C)cnn5)nc4c3)cn2)C1` [Example 0794, N-(5-isopropylpyridazin-3-yl)-7-(1-(3-(3-methoxy-3-methylazetidin-1-yl)propyl)-1H-pyrazol-4-yl)-1,5-naphthyridine-2-amine] are below 1000 nM and below 1000 nM.
As to `COC1CN(CCCn2cc(-c3cnc4ccc(Nc5cc(C(C)C)cnn5)nc4c3)c(C)n2)C1` [Example 0796, N-(5-isopropylpyridazin-3-yl)-7-(1-(3-(3-methoxyazetidin-1-yl)propyl)-3-methyl-1H-pyrazol-4-yl)-1,5-naphthyridine-2-amine], the IC50 (in experiment [1]; at human PI3Kα protein) was below 1000 nM throughout.
In the case of `COC1(C)CN(CCCn2cc(-c3cnc4ccc(Nc5cc(C(C)C)cnn5)nc4c3)c(C)n2)C1` [Example 0797], the IC50 (in experiment [1]; at human PI3Kα protein) was below 1000 nM throughout.
On to `CC(C)c1cnnc(Nc2ccc3ncc(-c4cn(C)nc4Nc4ccncc4)cc3n2)c1` [Example 0798], for which the IC50 (in experiment [1]; at human PI3Kα protein) was below 1000 nM in each case.
In the case of `CC(C)c1cnnc(Nc2ccc3ncc(-c4cn(C)nc4COc4cccnc4)cc3n2)c1` [Example 0799, N-(5-isopropylpyridazin-3-yl)-7-(1-methyl-3-((pyridin-3-yloxy)methyl)-1H-pyrazol-4-yl)-1,5-naphthyridine-2-amine], the IC50 (in experiment [1]; at human PI3Kα protein) was below 1000 nM in each case.
For the compound `Cc1nn(CCCO)cc1-c1cnc2ccc(Nc3cc(C(C)C)cnn3)nc2c1` [Example 0800, 3-(4-(6-((5-Isopropylpyridazin-3-yl)amino)-1,5-naphthyridin-3-yl)-3-methyl-1H-pyrazol-1-yl)propan-1-ol], the IC50 (in experiment [1]; on human PI3Kα protein) was below 1000 nM throughout.
`CC(C)c1cnnc(Nc2ccc3ncc(-c4cn(C)nc4N(C)c4cccnc4)cc3n2)c1` [Example 0802]: the IC50 (in experiment [1]; on human PI3Kα protein) was below 1000 nM throughout.
On to `CC(C)c1cnnc(Nc2ccc3ncc(-c4cn(C)nc4COc4ccccc4)cc3n2)c1` [Example 0803], for which the IC50 (in experiment [1]; on human PI3Kα protein) was below 1000 nM throughout.
Turning to `COc1cccc(OCc2nn(C)cc2-c2cnc3ccc(Nc4cc(C(C)C)cnn4)nc3c2)c1` [Example 0805], the IC50 (in experiment [1]; on human PI3Kα protein) was below 1000 nM in each case.
With `COc1ccc(OCc2nn(C)cc2-c2cnc3ccc(Nc4cc(C(C)C)cnn4)nc3c2)cc1` [Example 0806], the IC50 (in experiment [1]; at human PI3Kα protein) was below 1000 nM each time.
With `CC(C)c1cnnc(Nc2ccc3ncc(-c4cn(C)nc4/C=C/c4cccnc4)cc3n2)c1` [Example 0807], the IC50 (in experiment [1]; at human PI3Kα protein) was below 1000 nM throughout.
For `CC(C)c1cnnc(Nc2ccc3ncc(-c4cn(C)nc4CN(C)c4cccnc4)cc3n2)c1` [Example 0808], the IC50 was below 1000 nM in experiment [1] and 1000 to 10000 nM at human PI3Kα protein.
Take `CC(C)c1cnnc(Nc2ccc3ncc(-c4cn(C)nc4COc4cccc(OCCN(C)C)c4)cc3n2)c1` [Example 0809, 7-(3-((3-(2-(dimethylamino)ethoxy)phenoxy)methyl)-1-methyl-1H-pyrazol-4-yl)-N-(5-isopropylpyridazin-3-yl)-1,5-naphthyridine-2-amine]: the IC50 (in experiment [1]; at human PI3Kα protein) was below 1000 nM in each case.
Consider `CC(C)c1cnnc(Nc2ccc3ncc(-c4cn(C)nc4COc4cccc(OCC(=O)N(C)C)c4)cc3n2)c1` [Example 0810], for which the IC50 (in experiment [1]; on human PI3Kα protein) was below 1000 nM in each case.
For `CCOC(CN1CCOCC1)Cn1cc(-c2cnc3ccc(Nc4cc(C(C)C)cnn4)nc3c2)cn1` (stereo not shown) [Example 0811], the IC50 (in experiment [1]; on human PI3Kα protein) was below 1000 nM throughout.
`COC(CN1CC(OC(F)F)C1)Cn1cc(-c2cnc3ccc(Nc4cc(C(C)C)cnn4)nc3c2)cn1` (stereo not shown) [Example 0813, 7-(1-(3-(3-(Difluoromethoxy)azetidin-1-yl)-2-methoxypropyl)-1H-pyrazol-4-yl)-N-(5-isopropylpyridazin-3-yl)-1,5-naphthyridine-2-amine]: the IC50 (in experiment [1]; at human PI3Kα protein) was below 1000 nM throughout.
In the case of `COC(CN1CC(F)(F)C1)Cn1cc(-c2cnc3ccc(Nc4cc(C(C)C)cnn4)nc3c2)cn1` (stereo not shown) [Example 0814, 7-(1-(3-(3,3-difluoroazetidin-1-yl)-2-methoxypropyl)-1H-pyrazol-4-yl)-N-(5-isopropylpyridazin-3-yl)-1,5-naphthyridine-2-amine], the IC50 (in experiment [1]; at human PI3Kα protein) was below 1000 nM in each case.
As for `COC(CN1CC(F)C1)Cn1cc(-c2cnc3ccc(Nc4cc(C(C)C)cnn4)nc3c2)cn1` (stereo not shown) [Example 0815, 7-(1-(3-(3-Fluoroazetidin-1-yl)-2-methoxypropyl)-1H-pyrazol-4-yl)-N-(5-isopropylpyridazin-3-yl)-1,5-naphthyridine-2-amine], the IC50 (in experiment [1]; at human PI3Kα protein) was below 1000 nM in each case.
Turning to `CCC(CC)c1cnnc(Nc2ccc3ncc(-c4cnn(CCOC5CNC5)c4)cc3n2)c1` [Example 0816], the IC50 (in experiment [1]; on human PI3Kα protein) was below 1000 nM in each case.
As to `c1nnc(Nc2ccc3ncc(-c4cnn(CCOC5CNC5)c4)cc3n2)cc1CC1CCCCC1` [Example 0817], the IC50 (in experiment [1]; at human PI3Kα protein) was below 1000 nM each time.
Turning to `CCC(CC)c1cnnc(Nc2ccc3ncc(-c4cnn(CCOC5CN(C(C)C)C5)c4)cc3n2)c1` [Example 0818], the IC50 (in experiment [1]; at human PI3Kα protein) was below 1000 nM throughout.
`CC(C)N1CC(OCCn2cc(-c3cnc4ccc(Nc5cc(CC6CCCCC6)cnn5)nc4c3)cn2)C1` [Example 0819]: the IC50 (in experiment [1]; at human PI3Kα protein) was below 1000 nM in each case.
Consider `CC(C)c1cnnc(Nc2ccc3ncc(-c4cn(C)nc4Oc4ccccc4)cc3n2)c1` [Example 0820], for which the IC50 (in experiment [1]; at human PI3Kα protein) was below 1000 nM each time.
In the case of `CC(C)c1cnnc(Nc2ccc3ncc(-c4cn(C)nc4COC4CN(C(=O)OC(C)(C)C)C4)cc3n2)c1` [Example 0821, tert-Butyl 3-((4-(6-((5-isopropylpyridazin-3-yl)amino)-1,5-naphthyridin-3-yl)-1-methyl-1H-pyrazol-3-yl)methoxy)azetidine-1-carboxylate], the IC50 (in experiment [1]; on human PI3Kα protein) was below 1000 nM throughout.

Source of the values: patent US9783536B2, “Nitrogen-containing heterocyclic compound or salt thereof” (FUJIFILM Corporation, priority 2013, dated 2017).
